Assay results: article PMC5642273 (Biochemistry, 2017)
Read-outs that look alike come from different tables or passages of the source.

Tests used:
[1] = target: T1, (+)-limonene synthase [(+)-LS] (Citrus sinensis, UniProt A0A1C9J6A7); experiment: X-ray crystal structure; format: biochemical
[2] = target: T1, (+)-limonene synthase [(+)-LS]; experiment: X-ray crystal structure; format: biochemical; remark: listed apart in the source

T1 sequence (A0A1C9J6A7 53-607): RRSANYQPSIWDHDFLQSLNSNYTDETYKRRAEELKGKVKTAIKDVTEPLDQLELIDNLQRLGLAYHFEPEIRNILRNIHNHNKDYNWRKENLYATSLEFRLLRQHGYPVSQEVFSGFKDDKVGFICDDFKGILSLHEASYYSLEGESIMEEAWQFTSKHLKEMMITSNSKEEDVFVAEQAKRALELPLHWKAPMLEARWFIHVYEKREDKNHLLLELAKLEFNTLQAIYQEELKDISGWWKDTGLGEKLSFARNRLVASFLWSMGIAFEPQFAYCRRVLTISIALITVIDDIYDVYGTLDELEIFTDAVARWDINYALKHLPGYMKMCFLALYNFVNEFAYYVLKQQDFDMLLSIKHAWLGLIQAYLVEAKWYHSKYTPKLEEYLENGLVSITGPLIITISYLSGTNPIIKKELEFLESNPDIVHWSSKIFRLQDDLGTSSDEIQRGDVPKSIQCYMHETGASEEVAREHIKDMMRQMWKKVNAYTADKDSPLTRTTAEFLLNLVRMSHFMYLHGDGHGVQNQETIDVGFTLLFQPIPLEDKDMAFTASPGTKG

Row | Ki [1] | Ki [2] | SMILES
1 | 2.4 ± 0.5 µM |  | CC(C)=CCC/C(C)=C(\F)COP(=O)(O)OP(=O)(O)O [FGPP, 2-fluorogeranyl diphosphate]
2 |  | 39.5 ± 5.2 µM | CC(C)=CCC/C(C)=C(/F)COP(=O)(O)OP(=O)(O)O [FNPP, 2-fluoroneryl diphosphate]
